According to paper PMC3994062, “Inhibition of Paracoccidioides lutzii Pb01 Isocitrate Lyase by the Natural Compound Argentilactone and Its Semi-Synthetic Derivatives” (PLoS ONE, 2014):
Converted amounts (≈) assume the structure as drawn. Where two headings read alike, the source gives them in different places.

Experiments:
PbICLr = PbICLr (Paracoccidioides lutzii, UniProt C1H8F5); experiment: Enzymatic activity of recombinant isocitrate lyase (PbICLr); format: biochemical; settings: for Specific activity PbICLr: control 2.55±0.02
Sequence of PbICLr (C1H8F5 entry or part of it): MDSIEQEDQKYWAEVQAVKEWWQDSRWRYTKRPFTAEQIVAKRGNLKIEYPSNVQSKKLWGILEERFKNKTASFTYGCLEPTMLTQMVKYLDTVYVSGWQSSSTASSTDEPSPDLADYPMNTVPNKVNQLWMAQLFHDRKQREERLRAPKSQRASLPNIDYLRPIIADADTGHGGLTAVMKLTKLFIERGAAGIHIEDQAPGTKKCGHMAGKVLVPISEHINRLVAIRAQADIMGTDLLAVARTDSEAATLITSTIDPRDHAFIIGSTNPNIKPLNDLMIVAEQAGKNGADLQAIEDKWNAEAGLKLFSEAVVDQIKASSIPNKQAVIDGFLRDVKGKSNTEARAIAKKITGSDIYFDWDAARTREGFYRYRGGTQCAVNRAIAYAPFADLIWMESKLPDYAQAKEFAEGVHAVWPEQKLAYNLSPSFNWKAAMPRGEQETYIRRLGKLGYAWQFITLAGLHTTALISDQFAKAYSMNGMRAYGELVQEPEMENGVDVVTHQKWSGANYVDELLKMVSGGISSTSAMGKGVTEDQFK
Procedure: Recombinant PbICL protein was obtained as described by Cruz. Briefly, Pbicl cDNA was inserted into the pET-32a (+) expression vector (Novagen, Inc,). The resulting plasmid was transformed into E. coli BL21 C43 (DE3) cells, and expression was induced at an A600 of 0.6 by the addition of 1 mm (final concentration) isopropyl thio-β-D-galactoside (IPTG) (Sigma-Aldrich). After induction, the cells were incubated for another 2 h at 36°C with shaking at 200 rpm. The cells were harvested by centrifugation at 10,000×g for 5 min at 4°C and resuspended in 1 × NaCl/Pi buffer. After incubation for 30 min with 100 µg/mL lysozyme, the cells were lysed by extensive sonication. The sample was centrifuged at 4°C and 8,000×g for 15 min, and the supernatant, which contained the soluble protein fraction, was collected. His-tagged ICL was purified using the Ni-NTA Spin Kit (Qiagen), and the tags were subsequently removed by the addition of EKMax™ enterokinase (Invitrogen).
(§1) ICL activity was determined according to Cruz et al.. Reactions were performed in 1 mL assay volume containing 2 mM threo-D,L-isocitrate (effective concentration of threo-D-isocitrate 1 mM), 2 mM MgCl2, 10 mM phenylhydrazine HCl, 2 mM dithiothreitol, and 50 mM Tris HCl buffer (pH 7.0). The product glyoxylate-phenylhydrazone was followed at 324 nm using an extinction coefficient of 16.8 mM^−1.cm^−1. One unit of enzyme activity was defined as the formation of 1 µmol of glyoxylate-phenylhydrazone per minute using threo-D,L-isocitrate as the substrate. The specific activities were given as U.mg^−1 protein.
(§2) The compound concentrations were 10 µM, 20 µM, 30 µM, and 40 µM for recombinant PbICL and 30 µM, 40 µM, 50 µM, 60 µM, 70 µM, 80 µM and 90 µM for native PbICL. 3-nitropropinate (50.7 µM) was used as positive control. To the assays of specific activity of PbICL from mycelium, transition, and yeast, the cells were cultured for 10 days on 23°C and 36°C, and were used 18 µg/mL of argentilactone.

[1] = test system: P. lutzii Pb01 yeast cells; experiment: Inhibition and sensitivity assay, P. lutzii Pb01 yeast cells growth (broth macro dilution / spot on MMcM agar); format: cell-based, Paracoccidioides lutzii; settings: for effect on P. lutzii Pb01 yeast cells growth: glucose or acetate as carbon source, 9 to 72 µg/mL; for MIC: read-out: minimal inhibitory concentration
Procedure: Inhibition assays were performed by broth macro dilution method according to NCCLS M27-A2 guidelines with modifications. For the inhibition assays, yeast cells in their exponential growth phase were kept on solid MMcM for seven days at 36°C and inoculated in liquid MMcM medium. Sterile stock solution of the argentilactone, reduced argentilactone, epoxy argentilactone and diol argentilactone were freshly prepared in water and dimethyl sulfoxide (DMSO). Serial dilutions from stock solutions were prepared with sterile MMcM medium as the diluent, to yield final compound concentrations ranging from 9 to 72 µg/mL. Drug-free controls were included. Inocula concentrations were determined spectrophotometrically at 520 nm. The mixture was vortexed to disperse the aggregated cells. P. lutzii Pb01 was grown at 36°C, 200 rpm shaking for 10 days. For the sensitivity assay, 7-day-old P. lutzii Pb01 yeast cells were grown in liquid MMcM overnight at 36°C. Samples containing 10^5, 10^4, and 10^3 cells were spotted onto MMcM agar medium supplemented with argentilactone, reduced argentilactone, epoxy argentilactone, or diol argentilactone at concentrations of 9 µg/mL, 18 µg/mL, 36 µg/mL, or 72 µg/mL. […] The plates were incubated for 6 days at 36°C before being photographed.

PbICLc = PbICLc (Paracoccidioides lutzii, UniProt C1H8F5); experiment: Enzymatic activity of native PbICL in crude protein extract of yeast cells (PbICLc); format: biochemical; settings: for inhibition of native PbICL activity: crude extract of yeast cells; for Specific activity PbICLc Acetate: crude extract of yeast cells grown on acetate, control 0.080±0.004; for Specific activity PbICLc Acetate / Specific activity PbICLc Glucose / IC50 PbICLc Acetate / IC50 PbICLc Glucose / IC50: N.I. = No inhibition found; for Specific activity PbICLc Glucose: crude extract of yeast cells grown on glucose, control 0.010±0.002; for IC50 PbICLc Acetate / IC50 PbICLc Glucose / IC50: crude extract
Sequence of PbICLc (C1H8F5 entry or part of it): as above
Procedure: P. lutzii Pb01 yeast cells grown for 24 h in liquid minimal MMcM medium containing glucose or acetate as the carbon source were centrifuged for 5 min at 2.500×g. The proteins were extracted as previously described. The cells were washed with sterilized water and frozen in liquid nitrogen. The material was ground to a fine powder; resuspended in 500 µL of 50 mM potassium phosphate buffer (pH 7.0) supplemented with 1 mM dithiothreitol (DTT) and vigorously mixed with glass beads for 20 min at 4°C. The cell debris was removed by centrifugation for 15 min at 4°C and 5,000×g, and the supernatant was centrifuged for 15 min at 4°C and 12,000×g. The cell-free extract was used for the ICL activity assays or stored at −20°C for further analyses. Quantification of the protein content was performed according to Bradford.
as §1, §2

[2] = test system: P. lutzii Pb01 differentiation from mycelium to yeast; experiment: Transition from mycelium to yeast (dimorphism); format: cell-based, Paracoccidioides lutzii; settings: glucose or acetate; 10 days at 36°C
Procedure: The differentiation from mycelium to yeast was performed in Mc Veigh and Morton (MMcM) liquid minimal medium containing glucose (0.11 M) or acetate (0.28 M) as the carbon source. The cultivation temperature was changed from 23°C to 36°C to allow the mycelium to yeast transition. The cells were previously grown in liquid medium for 18 h before changing the incubation temperature, which was maintained for 10 days. The appearance of yeast cells was monitored using a Neubauer chamber.

dermatophytes = test system: dermatophytes; parameters: method as in doi:10.1590/S0103-50532004000500023; settings: cited from earlier work
PbICL = PbICL activity from phases of P. lutzii Pb01 cultured with argentilactone; format: biochemical, Paracoccidioides lutzii; settings: for PbICL specific activity: treated with 18 µg/mL; for inhibition of PbICL: 18 µg/mL, over the phases
Procedure: as §1, §2

MRC5 cells = experiment: Toxicity to MRC5 cells; format: cell-based; settings: 18 µg/mL; data not shown
[3] = test system: P. lutzii Pb01 yeast cells; experiment: Viability assay of P. lutzii Pb01 yeast cells (Neubauer chamber); format: cell-based, Paracoccidioides lutzii; settings: 18 µg/mL, after 6 h of incubation
Procedure: P. lutzii Pb01 yeast cells were sub-cultured every 7 days in solid Fava-Netto’s medium at 36°C. For viability experiments, yeast cells were kept in liquid McVeigh Morton (MMcM) chemically defined medium for 6 h at 36°C and viability of the cells determined by counting viable cells in a Neubauer chamber. All experiments were performed in triplicate.

[4] = recombinant enzyme, N.I. = No inhibition found
[5] = read-out: IC50 PbICLc Acetate, acetate
[6] = read-out: IC50 PbICLc Glucose, glucose

Compound | effect against PbICLr (PbICLr; recombinant enzyme) | IC50 PbICLr (PbICLr; [4]) | Specific activity PbICLr (PbICLr; [4]) | effect on P. lutzii Pb01 yeast cells growth [1] | inhibition of native PbICL activity (PbICLc) | Specific activity PbICLc Acetate (PbICLc) | Specific activity PbICLc Glucose (PbICLc) | IC50 PbICLc Acetate (PbICLc; acetate) | IC50 PbICLc Glucose (PbICLc; glucose) | inhibition of the dimorphism mycelium to yeast [2] | IC50 (PbICLr) | MIC ([1]; acetate as carbon source) | MIC ([1]; glucose as carbon source) | IC50 (PbICLc; [5]) | IC50 (PbICLc; [6]) | further results
CCCCC[C@@H](O)[C@H](O)[C@H]1CC=CC(=O)O1 [Diol argentilactone, 2H-Pyran-2-one, 6-(1,2-dihydroxyheptyl)-5,6-dihydro-, [6R-(1S, 2R)]] | no effect | N.I. ^** | N.I. ^** | very small effect | No inhibition | N.I. ^** | N.I. ^** | N.I. ^** | N.I. ^** | did not interfere |  |  |  |  |  | 
CCCCCC1OC1C1CC=CC(=O)O1 [Epoxi argentilactone, 2H-Pyran-2-one, 5,6-dihydro-6-[(2S, 3S)-3-pentyl-2-oxiranyl] -, (6R)] | no effect | N.I. ^** | N.I. ^** | very small effect | No inhibition | N.I. ^** | N.I. ^** | N.I. ^** | N.I. ^** | did not interfere |  |  |  |  |  | 
CCCCCCCC1CC=CC(=O)O1 (stereo in doubt) [Reduced argentilactone, 2H-Pyran-2-one, 6-heptyl-5,6-dihydro-, (6R)] |  |  | 0.93±0.01 U/mg | dose-dependent inhibition | inhibited | 0.067±0.004 U/mg | 0.009±0.003 U/mg |  |  | the effect was reduced | 30.2 ± 0.04 µM | 9 µg/mL (≈ 45.9 µM) | 18 µg/mL (≈ 91.7 µM) | 60 ± 0.02 µM | 85 ± 0.01 µM | 
CCCCC/C=C\[C@H]1CC=CC(=O)O1 [Argentilactone, 2H-Pyran-2-one, 6-(1-heptenyl)-5,6-dihydro-, [R-(Z)]] |  |  | 0.86±0.01 U/mg | dose-dependent inhibition | inhibited | 0.040±0.001 U/mg |  |  |  | dose-dependent inhibition | 28.8 ± 0.01 µM | 9 µg/mL (≈ 46.3 µM) | 18 µg/mL (≈ 92.7 µM) | 50 ± 0.03 µM | 80 ± 0.02 µM | minimal inhibitory concentration (dermatophytes): 31 µg/mL (≈ 160 µM); PbICL specific activity (PbICL; Mycelium to Yeast, Acetate): 0.055±0.003 U; PbICL specific activity (PbICL; Mycelium to Yeast, Glucose): 0.055±0.001 U; PbICL specific activity (PbICL; Mycelium, Acetate): 0.055±0.005 U; PbICL specific activity (PbICL; Mycelium, Glucose): T 0.045±0.001 U; PbICL specific activity (PbICL; Yeast, Acetate): 0.120±0.003 U; PbICL specific activity (PbICL; Yeast, Glucose): 0.085±0.001 U; inhibition of PbICL (PbICL; acetate): ~45%; inhibition of PbICL (PbICL; glucose): ~30%; toxicity to MRC5 cells (MRC5 cells): not toxic; decrease of viability [3]: approximately 15%
O=C(O)CC[N+](=O)[O-] [3-Nitropropionate, reference compound] |  |  | 0.81±0.01 U/mg |  |  | 0.036±0.002 U/mg | 0.008±0.001 U/mg |  |  |  |  |  |  |  |  | IC50 (PbICLr; recombinant enzyme, N.I. = No inhibition found, read-out: IC50 PbICLr): 25.7 ± 0.01 µM; IC50 (PbICLc; acetate, read-out: IC50 PbICLc Acetate): 45.4 ± 0.01 µM; IC50 (PbICLc; glucose, read-out: IC50 PbICLc Glucose): 76 ± 0.01 µM
